Where “and” joins values, the source holds several entries; their conditions need not be identical. Equal entries are not always repeated. Where two headings read alike, the source gives them in different places.
Columns and labels:
[1] = target: N-QsuB (Corynebacterium glutamicum, UniProt Q8NT86); assay: DSD activity assay of purified N-QsuB (N-terminal domain of QsuB); type: biochemical
[2] = target: QsuB (Corynebacterium glutamicum, UniProt Q8NT86); assay: DSD activity assay of purified QsuB (3,4-DHBA formation at 290 nm); type: biochemical
[3] = target: QsuB, dehydroshikimate dehydratase (DSD) from Corynebacterium glutamicum (Corynebacterium glutamicum); assay: SEC; Superose 6 Increase 10/300 GL; 50 mM Tris-HCl (pH 7.5), 500 mM NaCl, 5% v/v glycerol; 0.4 ml/min; A280; mass from a calibration curve of standard proteins; self-association of QsuB
[4] = target: N-QsuB, N-terminal domain of QsuB (Corynebacterium glutamicum); assay: SEC; Superose 6 Increase 10/300 GL; 50 mM sodium phosphate (pH 7.0), 150 mM NaCl; 0.5 ml/min; A280; mass from a calibration curve of standard proteins; self-association of N-QsuB
[5] = tested on: AsbF B. t. 97-27; design: method as in PMID 18975921; details: pH 8.6, 37°C ref [12], cited from earlier work
[6] = tested on: QuiC1; design: method as in PMID 27706847; details: cited from earlier work
[7] = tested on: QsuB C-terminal domain; assay: Test of dioxygenase activity of the C-terminal domain towards 3,4-DHBA (UV spectrum); type: biochemical, Corynebacterium glutamicum; details: pH 7.5, incubation with QsuB up to 60 min
Procedure: An inhibition type and inhibition constants of the enzyme reaction were determined by a graphical method. The experimental data were plotted as (Vmax–v)/v versus the inhibitor concentration (0 ‒ 0.4 mM 3,4-DHBA) at 0.5/ 1/ 1.5 mM concentrations of DHS, where Vmax and v represented the maximal velocity and the velocity in the absence and presence of inhibitor with given concentrations of the substrate, respectively. The dioxygenase activity of the C-terminal domain was tested with the crude extracts in the reaction mixture of 0.1 M Tris/HCl buffer (pH 7.5), 10 mM MgCl2, 0.1 mM DHBA, and 30 nM of overall protein.
Thus, a possible activity of the C-terminal domain leading to conversion of 3,4-DHBA into another product was not detected under our experimental conditions.

[8] = tested on: C. glutamicum; details: cited from earlier work
[9] = tested on: E. coli; details: cited from earlier work
[10] = substrate: O=C(O)C1=CC(=O)C(O)C(O)C1; assay: DSD activity assay of purified N-QsuB (N-terminal domain of QsuB); type: biochemical, Corynebacterium glutamicum; details: other: N-QsuB, pH 7.5, 20°C
[11] = N-QsuB, 1 mM DHS, 10 mM metal salt, normalized against cobalt
[12] = QsuB, 1 mM DHS, 10 mM metal salt, normalized against cobalt

Sequence of QsuB (Q8NT86 entry or part of it): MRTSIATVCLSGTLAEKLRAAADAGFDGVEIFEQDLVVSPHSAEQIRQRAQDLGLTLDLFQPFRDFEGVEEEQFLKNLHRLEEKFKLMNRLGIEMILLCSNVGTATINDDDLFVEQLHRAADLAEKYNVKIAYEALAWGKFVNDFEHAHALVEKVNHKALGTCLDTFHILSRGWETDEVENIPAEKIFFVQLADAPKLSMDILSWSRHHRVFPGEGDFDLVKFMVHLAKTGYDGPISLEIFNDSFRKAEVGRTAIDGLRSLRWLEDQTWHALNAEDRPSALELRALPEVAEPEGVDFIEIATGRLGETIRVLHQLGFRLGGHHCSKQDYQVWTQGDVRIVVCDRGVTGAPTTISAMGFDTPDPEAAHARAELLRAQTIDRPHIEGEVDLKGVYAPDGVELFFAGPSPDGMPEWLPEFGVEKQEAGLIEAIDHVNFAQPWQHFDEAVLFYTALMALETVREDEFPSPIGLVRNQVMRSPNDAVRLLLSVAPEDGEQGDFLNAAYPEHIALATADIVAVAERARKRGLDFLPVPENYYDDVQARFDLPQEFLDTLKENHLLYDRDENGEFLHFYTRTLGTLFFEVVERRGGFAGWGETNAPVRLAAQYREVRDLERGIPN

In the case of `O=C(O)CN(CCN(CC(=O)O)CC(=O)O)CC(=O)O` [EDTA], the “effect on DSD activity without added metal ions” value [1] is reported as “inhibited” and the “effect on DSD activity without added metal ions” value [2] is reported as “inhibited”.

In the case of `[Cl-].[Cl-].[Mg+2]` [Mg, MgCl2], the “Specific activity (relative DSD activity with divalent metal)” value [1, 11] is reported as 22% and the “Specific activity (relative DSD activity with divalent metal)” value [2, 12] is reported as 24%.

For “QsuB, dehydroshikimate dehydratase (DSD) from Corynebacterium glutamicum (enzyme)”, the percent present as monomers [3] was 15%, the percent present as octamers [3] was 60% and the percent present as tetramers [3] was 25%. For the same molecule, the stoichiometry N [3] was 8 and 4.

With `[Cl][Mn][Cl]` [Mn, MnCl2] the “Specific activity (relative DSD activity with divalent metal)” value [1, 11] was 21% and the “Specific activity (relative DSD activity with divalent metal)” value [2, 12] was 17%.

With “N-QsuB, N-terminal domain of QsuB (domain or fragment)” the stoichiometry N [4] was 2.

With `O=C(O)C1=CC(=O)C(O)C(O)C1` (stereo not shown) [DHS, 3-dehydroshikimic acid] the IC50 ([1]; N-QsuB, substrate inhibition, calculated from data of Fig 6, read-out: IC50 (decrease of DSD activity by substrate DHS)) was about 5500 µM, the kcat ([2]; QsuB, substrate DHS, pH 7.5, 20°C) was 60.8 ± 0.9 s⁻¹ and the IC50 ([2]; QsuB, substrate inhibition, calculated from data of Fig 6, read-out: IC50 (decrease of DSD activity by substrate DHS)) was about 4200 µM. The Km ([5]; read-out: Km (DHS)) was 125 ± 14 µM, the kcat ([5]; substrate DHS) was 3.6 ± 0.2 s⁻¹ and the Km ([6]; QuiC1, pH 7.5, 25°C ref [15], read-out: Km (DHS)) was 331 ± 51 µM. The kcat ([6]; QuiC1, substrate DHS, pH 7.5, 25°C ref [15]) was 163.6 ± 8.5 s⁻¹.

In the case of `O=C(O)c1ccc(O)c(O)c1` [3,4-DHBA, 3,4-dihydroxybenzoic acid], the inhibition type ([1]; N-QsuB, quotient velocity plot) is reported as “noncompetitive inhibition”, the Ki ([1]; N-QsuB, quotient velocity plot, 0.5/1/1.5 mM DHS, read-out: Ki (binding to the enzyme)) is reported as about 690 µM and the inhibition type ([2]; QsuB, quotient velocity plot) is reported as “mix inhibition type”. For the same molecule, the “Ki' (binding to the enzyme-substrate complex)” value ([2]; QsuB, quotient velocity plot, 0.5/1/1.5 mM DHS) was ~ 0.96 mM, the Ki ([2]; QsuB, quotient velocity plot, 0.5/1/1.5 mM DHS, read-out: Ki (binding to the enzyme)) was about 380 µM and the “conversion of 3,4-DHBA (change of UV spectrum)” value [7] was “no difference in the UV spectrum was observed”.

For `[Cl-].[Cl-].[Co+2]` [Co, CoCl2], the “Specific activity (relative DSD activity with divalent metal)” value [1] is listed as 100%, the “Specific activity (relative DSD activity with divalent metal)” value [2] is listed as 100% and the “Co^2+ concentration at which growth is possible” value [8] is listed as 2 mM. For the same molecule, the “Co^2+ concentration tolerated” value [9] was under 1 mM.

B1: N-QsuB (Corynebacterium glutamicum ATCC 13032) (protein)
chain: MRTSIATVCLSGTLAEKLRAAADAGFDGVEIFEQDLVVSPHSAEQIRQRAQDLGLTLDLFQPFRDFEGVEEEQFLKNLHRLEEKFKLMNRLGIEMILLCSNVGTATINDDDLFVEQLHRAADLAEKYNVKIAYEALAWGKFVNDFEHAHALVEKVNHKALGTCLDTFHILSRGWETDEVENIPAEKIFFVQLADAPKLSMDILSWSRHHRVFPGEGDFDLVKFMVHLAKTGYDGPISLEIFNDSFRKAEVGRTAIDGLRSLRWLEDQTWHALNAEDRPSALELRALPEVAEPEGVDF
Work on B1 yielded a Km [10] of 473 ± 71 µM, a kcat [10] of 23.4 ± 0.4 s⁻¹ and a kcat/Km [10] of 49500 ± 5600 M⁻¹ s⁻¹.
